Test results: patent US20220135580A1, “HYDROXYPH[…], METHODS AND USES THEREOF” (priority 2019, published 2022)
Entries after “also recorded” stand apart in the source; their conditions may differ.

Experiments:
[1] = test system: neutral lipids in zebrafish larvae; test: zebrafish Nile red fat metabolism assay (lipid reducing activity); type: in vivo, Zebrafish (Danio rerio); settings: for IC50 / lipid reducing activity / Nile red staining: zebrafish larvae, exposure for 48 h; for IC50: Nile red; for fluorescence intensity of Nile red: all tested concentrations (156 ng/mL to 10 μg/mL)
Experimental: FIG. 1.A: Representative images of the zebrafish Nile red fat metabolism assay. Nile red fluorescence signal indicates neutral lipids around the yolk sac and stomach/intestine. […] A solvent control (0.1% dimethyl sulfoxide, DMSO) and positive control group (50 μM resveratrol, REV) was included.
FIG. 1.B: Quantification of lipid-reducing activity in the zebrafish Nile Red fat metabolism assay after exposure for 48 h. Values are expressed as mean fluorescence intensity (MFI) relative to the DMSO group and are derived from 6 to 8 individual larvae per treatment group. The data are represented as box-whisker plots (5 to 95 percentiles). Asterisks highlight significant differences compared to the DMSO group (****p<0.0001; ***p<0.001; **p<0.01; *p<0.05).
Zebrafish (Danio rerio) has become an attractive model organism for biomedical research. In the study of complex metabolic disorders like obesity, the use of more complex in vivo model systems as small whole animal models can bring significant advantages. For drug discovery, zebrafish assays can be used complementary to rodent assays, with easier handling, high predictive validity and cost-efficiency while compatible with high-throughput screening. […] The zebrafish Nile red fat metabolism assay analyses the capacity of compounds to reduce neutral lipids in zebrafish larvae in vivo.
(§1) 13^2(S)-hydroxy-pheophytin a (hpa) is a known compound, and belongs to the photosystem II complex of the chloroplast. The second is a novel compound, 13^2(S)-hydroxy-pheofarnesin a (hfa), which is structurally related to hpa.
In an embodiment, chlorophyll a and chlorophyll b were tested for lipid reducing activity on the zebrafish Nile red fat metabolism assay.

[2] = test system: zebrafish larvae; test: general toxicity on zebrafish larvae (death, malformations); type: in vivo, Zebrafish (Danio rerio); settings: same concentration ranges as lipid reducing activity
Source text: as §1

[3] = test system: differentiated 3T3-L1 spheroids; test: viability (calcein AM) in differentiated 3T3-L1 spheroids; type: cell-based, murine; settings: for toxicity by calcein AM staining: 3T3L1 spheroids; for reduction of viability of spheroids: not significant
Experimental: (§2) FIG. 2: Evaluation of lipid content (Nile red) and viability (calcein AM) in differentiated 3T3-L1 spheroids after exposure to compound 1 (hpa) and compound 2 (hfa) over 48 h. […] Statistical difference to the solvent control were analysed by One-Way ANOVA, followed by a Dunnett's multiple comparison post-test (***p-value<0.001, **p-value <0.01, *p-value <0.05). Quantification of free glycerol (lipolysis) on the medium where 3T3-L1 organoids were exposed to compound 1 (hpa) and compound 2 (hfa) over 48 h. […] Kolmogorov-Smirnov test was used to test normality of the data, followed by a Dunnett's multiple comparison post-test (***p-value <0.001, **p-value <0.01, *p-value <0.05).
(§3) In an embodiment, the bioactivity of hpa and hfa was confirmed in a further assay, using the murine pre-adipocyte cell line 3T3L1. […] In an embodiment, the activity in differentiated 3T3L1 spheroids was confirmed and analysis of lipolysis performed.

[4] = test system: differentiated 3T3-L1 spheroids; test: lipid content (Nile red) in differentiated 3T3-L1 spheroids; type: cell-based, murine; settings: for lipid accumulation: 48 h exposure, spheroids after 7 d differentiation; for lipid content of the spheroids: 3T3L1 cells grown and differentiated as spheroids
Experimental: as §2, §3

[5] = test system: differentiated 3T3-L1 spheroids; test: lipolysis: free glycerol in the medium of 3T3-L1 spheroids; type: cell-based, murine; settings: 3T3-L1 spheroids exposed over 48 h
Experimental: as §2, §3

[6] = test system: cancer cells; settings: Cheng et al., 2001; cited from earlier work

Molecule	IC50 [1]	lipid reducing activity / Nile red staining [1]	general toxicity (death, malformations) [2]	toxicity by calcein AM staining [3]	reduction in viability of spheroids ([3]; any concentration, 48 h)	lipid accumulation ([4]; 30 μg/mL)	lipid content of the spheroids [4]	lipolytic activity / free glycerol content in the medium [5]	lipolytic activity / free glycerol content in the medium ([5]; listed as compound 2)	cytotoxicity on cancer cells [6]	reduction of viability of spheroids ([3]; 15 μg/mL, 48 h)	reduction of viability of spheroids ([3]; 30 μg/mL, 48 h)	lipid accumulation ([4]; 7.5 μg/mL)	lipid accumulation ([4]; 15 μg/mL)	lipolytic activity / free glycerol content in the medium ([5]; listed as compound 1)	fluorescence intensity of Nile red [1]
13^2-(S)-hydroxy-pheofarnesin a [hfa]	15.5 ± 1.3 µM	show a decrease in the Nile red staining	No general toxicity was observed	No toxicity was observed	did not cause any reduction in viability	significant reduction of lipid accumulation	reduced significantly the lipid content	did not alter lipolytic activities	No significant alterations							
13^2-(S)-hydroxy-pheophytin a [hpa]	8.9 ± 0.4 µM	show a decrease in the Nile red staining	No general toxicity was observed	No toxicity was observed		significant reduction of lipid accumulation	reduced significantly the lipid content	did not alter lipolytic activities		8.8 to 22 µg/mL	20%	20%	significant reduction of lipid accumulation	significant reduction of lipid accumulation	No significant alterations	
C=Cc1c(C)c2cc3nc(c4c5[n-]c(cc6nc(cc1[n-]2)C(C)=C6CC)c(C)c5C(=O)[C@@H]4C(=O)OC)[C@@H](CCC(=O)OC/C=C(\C)CCC[C@H](C)CCC[C@H](C)CCCC(C)C)[C@@H]3C.[Mg+2] [chlorophyll a]		not present; also recorded: did not demonstrate any lipid reducing activity														did not reduce the fluorescence intensity
C=Cc1c(C)c2cc3nc(c4c5[n-]c(cc6nc(cc1[n-]2)C(C=O)=C6CC)c(C)c5C(=O)[C@@H]4C(=O)OC)[C@@H](CCC(=O)OC/C=C(\C)CCC[C@H](C)CCC[C@H](C)CCCC(C)C)[C@@H]3C.[Mg+2] [chlorophyll b]		not present; also recorded: did not demonstrate any lipid reducing activity														did not reduce the fluorescence intensity
